Counter-ions that a name gives are not always drawn. Like-named read-outs stand apart in the source and are kept apart here.
How the values were obtained:
B/Russia/69 = experiment: Influenza virus cytoprotection assay in A549 cells (MTS); type: cell-based; conditions: unidentified influenza virus, A549, 168 h
A/Victoria/3/75 (H3N2) = experiment: as above; type: cell-based; conditions: for IC50: 168 h, reduction in viral cytopathic effects, 7 days
A/PR/8/34 (H1N1) = experiment: as above; type: cell-based; conditions: for inhibition at 10 µM: 10 μM compound, read-out: inhibition observed at 10 μM; for IC50: 168 h, reduction in viral cytopathic effects, 7 days
B/Lee/40 = experiment: as above; type: cell-based; conditions: A549, 168 h
A/WS/33 (H1N1) = experiment: as above; type: cell-based; conditions: for inhibition at 10 µM: 10 μM compound, read-out: inhibition observed at 10 μM; for IC50: 168 h, reduction in viral cytopathic effects, 7 days
in vitro = conditions: human
A/Hong Kong/8/68 (H3N2) = experiment: Influenza virus cytoprotection assay in A549 cells (MTS); type: cell-based; conditions: for inhibition at 10 µM: 10 μM compound, read-out: inhibition observed at 10 μM; for IC50: 168 h, reduction in viral cytopathic effects, 7 days
A549 cells = conditions: concentration resulting in 50% cell death, absence of virus; for CC50: read-out: TC50

Row | SMILES | IC50 (B/Russia/69) | IC50 (A/Victoria/3/75 (H3N2)) | inhibition at 10 µM (A/PR/8/34 (H1N1)) | IC50 (B/Lee/40) | inhibition at 10 µM (A/WS/33 (H1N1)) | CC50 (in vitro) | inhibition at 10 µM (A/Hong Kong/8/68 (H3N2)) | CC50 (A549 cells; A/PR/8/34 (H1N1)) | CC50 (A549 cells; A/Victoria/3/75 (H3N2)) | CC50 (A549 cells; A/WS/33 (H1N1)) | CC50 (A549 cells; B/Lee/40) | CC50 (A549 cells; B/Russia/69) | IC50 (A/PR/8/34 (H1N1)) | IC50 (A/WS/33 (H1N1)) | IC50 (A/Hong Kong/8/68 (H3N2)) | further results
1 | CC(C)N1CCN(Cc2cnc(-c3cc(-c4cccc5[nH]ccc45)cc4[nH]ncc34)o2)CC1 [Compound A, 6-(1H-indol-4-yl)-4-(5-{[4-(1-methylethyl)-1-piperazinyl]methyl}-1,3-oxazol-2-yl)-1H-indazole hydrochloride] | 3.53 µM | 9.19 µM | 15.9% | 4.61 µM | 21.4% | > 10 µM | 40.4% | > 10 µM | > 10 µM | > 10 µM | > 10 µM | > 10 µM |  |  |  | 
2 | COc1ncc(-c2cc(-c3ncc(CN4C[C@@H](C)O[C@@H](C)C4)o3)c3cn[nH]c3c2)cc1NS(C)(=O)=O [Compound B, N-[5-[4-(5-{[(2R,6S)-2,6-dimethyl-4-morpholinyl]methyl}-1,3-oxazol-2-yl)-1H-indazol-6-yl]-2-(methyloxy)-3-pyridinyl]methanesulfonamide] | 4.65 µM |  | 35% | 7.94 µM | 0.1% | > 10 µM | 13.7% | > 10 µM | > 10 µM | > 10 µM | > 10 µM | > 10 µM |  |  |  | inhibition at 10 µM (A/Victoria/3/75 (H3N2); 10 μM compound, read-out: inhibition observed at 10 μM): 11.4%
3 | NC(=O)c1ncn([C@@H]2O[C@H](CO)[C@@H](O)[C@H]2O)n1 [Ribavirin, ribavirin] | 4.75 µg/mL | 6.01 µg/mL |  | 6.65 µg/mL |  |  |  |  |  |  |  |  | 7.35 µg/mL | 7.34 µg/mL | 6.59 µg/mL | TC50 (A549 cells; A/PR/8/34 (H1N1)): >100 µg/mL; TC50 (A549 cells; A/Victoria/3/75 (H3N2)): >100 µg/mL; TC50 (A549 cells; A/WS/33 (H1N1)): >100 µg/mL; TC50 (A549 cells; B/Lee/40): >100 µg/mL; TC50 (A549 cells; B/Russia/69): >100 µg/mL; TC50 (A549 cells; table row A/Hong Kong/8/68 (H3N2)): >100 µg/mL
4 | CC(=O)N[C@H]1[C@H]([C@H](O)[C@H](O)CO)OC(C(=O)O)=C[C@@H]1N=C(N)N [Zanamivir, zinamavir] | 3.25 µM | 0.832 µM |  | 2.52 µM |  | > 100 µM |  | > 100 µM | > 100 µM | > 100 µM | > 100 µM | > 100 µM | […] | 743 nM | 871 nM | 

— patent US9326987B2 (priority 2010, dated 2016)
